Test results from ChEMBL document CHEMBL1201862, “PubChem BioAssay data set” (2004).
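In this assay, cells in 96-well plates receive the compound at five concentrations for 48 hours. Endpoints are linearly interpolated between the surrounding concentrations. Abbreviation: GI50, concentration required for 50% inhibition of growth.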 Activity calls are given as the source filed them. Cut-off read from the data, not from the text of the source: active = GI50 up to about 1.1 µM and inactive = higher.

Experiments:
Experiment in all cases: inhibition of tumour cell growth, NCI panel, 48 h
[1] = tested on: HCT-15
[2] = tested on: UACC-62
[3] = tested on: ACHN
[4] = tested on: T47D
[5] = tested on: M14
[6] = tested on: MDA-MB-435
[7] = tested on: IGROV-1
[8] = tested on: BT-549
[9] = tested on: UACC-257
[10] = tested on: SNB-75
[11] = tested on: UO-31
[12] = tested on: 786-0
[13] = tested on: LOX IMVI
[14] = tested on: A549
[15] = tested on: PC-3
[16] = tested on: HOP-62
[17] = tested on: NCI-H460
[18] = tested on: SF-268
[19] = tested on: K562
[20] = tested on: CCRF-CEM
[21] = tested on: NCI-H226
[22] = tested on: SK-MEL-5
[23] = tested on: NCI-H522
[24] = tested on: SK-MEL-2
[25] = tested on: OVCAR-8
[26] = tested on: RPMI-8226
[27] = tested on: Hs-578T
[28] = tested on: SF-539
[29] = tested on: MOLT-4
[30] = tested on: MCF7
[31] = tested on: SK-MEL-28
[32] = tested on: TK-10
[33] = tested on: NCI-H23
[34] = tested on: U-251
[35] = tested on: OVCAR-3
[36] = tested on: HL-60
[37] = tested on: RXF 393
[38] = tested on: NCI/ADR-RES
[39] = tested on: COLO 205
[40] = tested on: MDA-N
[41] = tested on: MDA-MB-231
[42] = tested on: Malme-3M
[43] = tested on: SR
[44] = tested on: DU-145
[45] = tested on: SN12C
[46] = tested on: KM12
[47] = tested on: SF-295
[48] = tested on: HCT-116
[49] = tested on: OVCAR-5
[50] = tested on: A498
[51] = tested on: CAKI-1
[52] = tested on: HT-29
[53] = tested on: HCC 2998
[54] = tested on: SNB-19
[55] = tested on: SK-OV-3
[56] = tested on: SW-620
[57] = tested on: HOP-92
[58] = tested on: OVCAR-4
[59] = tested on: EKVX

Oc1c2cc(Br)cc1CCc1cc(Br)cc(c1O)CC2
GI50 [1]: 30.5 µM
GI50 [2]: 18.6 µM (inactive)
GI50 [3]: 23.7 µM (inactive)
GI50 [4]: 38.8 µM (inactive)
GI50 [5]: 16.3 µM (inactive)
GI50 [6]: 29.2 µM (inactive)
GI50 [7]: 38.2 µM (inactive)
GI50 [8]: 22.6 µM (inactive)
GI50 [9]: 20.2 µM (inactive)
GI50 [10]: 21.6 µM (inactive)
GI50 [11]: 12.8 µM (inactive)
GI50 [12]: 30.2 µM (inactive)
GI50 [13]: 16.2 µM (inactive)
GI50 [14]: 26.9 µM (inactive)
GI50 [15]: 14.8 µM (inactive)
GI50 [16]: 28.6 µM (inactive)
GI50 [17]: 18.5 µM (inactive)
GI50 [18]: 22.6 µM (inactive)
GI50 [19]: 20.2 µM (inactive)
GI50 [20]: 18.2 µM (inactive)
GI50 [21]: 16.3 µM (inactive)
GI50 [22]: 13.6 µM (inactive)
GI50 [23]: 14.4 µM (inactive)
GI50 [24]: 20 µM (inactive)
GI50 [25]: 28.8 µM (inactive)
GI50 [26]: 17.2 µM (inactive)
GI50 [27]: 23.1 µM (inactive)
GI50 [28]: 28.4 µM (inactive)
GI50 [29]: 18 µM (inactive)
GI50 [30]: 22.3 µM (inactive)
GI50 [31]: 27 µM (inactive)
GI50 [32]: 31.6 µM (inactive)
GI50 [33]: 28.6 µM (inactive)
GI50 [34]: 23.6 µM (inactive)
GI50 [35]: 20.2 µM (inactive)
GI50 [36]: 15.7 µM (inactive)
GI50 [37]: 20.2 µM (inactive)
GI50 [38]: 21.6 µM (inactive)
GI50 [39]: 14.4 µM (inactive)
GI50 [40]: 30.1 µM (inactive)
GI50 [41]: 14 µM (inactive)
GI50 [42]: 28.8 µM (inactive)
GI50 [43]: < 0.01 µM (active)
GI50 [44]: 16 µM (inactive)
GI50 [45]: 41.9 µM (inactive)
GI50 [46]: 17.3 µM (inactive)
GI50 [47]: 18.3 µM (inactive)
GI50 [48]: 15.1 µM (inactive)
GI50 [49]: 23.2 µM (inactive)
GI50 [50]: 31.8 µM (inactive)
GI50 [51]: 36 µM (inactive)
GI50 [52]: 15.6 µM (inactive)
GI50 [53]: 15.3 µM (inactive)
GI50 [54]: 31 µM (inactive)
GI50 [55]: 20.8 µM (inactive)
GI50 [56]: 24.3 µM (inactive)

CSCCC(C(=O)O)N(C)C (stereo not drawn)
GI50 [57]: > 100 µM (inactive)
GI50 [1]: > 100 µM
GI50 [2]: > 100 µM (inactive)
GI50 [3]: > 100 µM (inactive)
GI50 [4]: > 100 µM (inactive)
GI50 [5]: > 100 µM (inactive)
GI50 [6]: > 100 µM (inactive)
GI50 [7]: > 100 µM (inactive)
GI50 [8]: > 100 µM (inactive)
GI50 [9]: > 100 µM (inactive)
GI50 [10]: > 100 µM (inactive)
GI50 [11]: > 100 µM (inactive)
GI50 [12]: > 100 µM (inactive)
GI50 [13]: > 100 µM (inactive)
GI50 [14]: > 100 µM (inactive)
GI50 [15]: > 100 µM (inactive)
GI50 [16]: > 100 µM (inactive)
GI50 [17]: > 100 µM (inactive)
GI50 [58]: > 100 µM (inactive)
GI50 [18]: > 100 µM (inactive)
GI50 [19]: 41.9 µM (inactive)
GI50 [20]: > 100 µM (inactive)
GI50 [21]: > 100 µM (inactive)
GI50 [22]: > 100 µM (inactive)
GI50 [23]: > 100 µM (inactive)
GI50 [59]: > 100 µM (inactive)
GI50 [24]: > 100 µM (inactive)
GI50 [25]: > 100 µM (inactive)
GI50 [26]: > 100 µM (inactive)
GI50 [27]: > 100 µM (inactive)
GI50 [28]: > 100 µM (inactive)
GI50 [30]: > 100 µM (inactive)
GI50 [31]: > 100 µM (inactive)
GI50 [32]: > 100 µM (inactive)
GI50 [33]: > 100 µM (inactive)
GI50 [34]: > 100 µM (inactive)
GI50 [35]: > 100 µM (inactive)
GI50 [36]: > 100 µM (inactive)
GI50 [37]: > 100 µM (inactive)
GI50 [38]: > 100 µM (inactive)
GI50 [39]: > 100 µM (inactive)
GI50 [40]: > 100 µM (inactive)
GI50 [41]: > 100 µM (inactive)
GI50 [42]: > 100 µM (inactive)
GI50 [43]: > 100 µM (inactive)
GI50 [44]: > 100 µM (inactive)
GI50 [45]: > 100 µM (inactive)
GI50 [46]: > 100 µM (inactive)
GI50 [47]: > 100 µM (inactive)
GI50 [48]: > 100 µM (inactive)
GI50 [49]: > 100 µM (inactive)
GI50 [50]: > 100 µM (inactive)
GI50 [51]: > 100 µM (inactive)
GI50 [52]: > 100 µM (inactive)
GI50 [54]: > 100 µM (inactive)
GI50 [55]: > 100 µM (inactive)
GI50 [56]: > 100 µM (inactive)
